Data set [1] deals with T1, human EP4 receptor (Homo sapiens, UniProt P35408). The data set is described as follows: Assay of calcium current inhibition on EP4 receptor (FLIPR, 293 cells). Format: cell-based. On the set-up: expressed in transfected cells; host or cells: 293 cells. Particulars: 293 cells overexpressing human EP4; PGE2 at EC80; FLIPR. As to the method: The cells were rapidly thawed in a 37° C. water bath, centrifuged, resuspended, and counted. The cell suspensions were seeded at 20 μL/well in two 384-well plates (20,000 cells/well) and placed in an incubator (a 37° C., 5% CO2) overnight. Preparation of a 2× Fluo-4 Direct™ (Invitrogen, Cat #F10471) loading buffer: 77 mg of probenecid was added to 1 mL of a FLIPR buffer, with a concentration of 250 mM. 10 mL of FLIPR buffer and 0.2 mL of probenecid (250 mM) were added to each tube of Fluo-4 Direct™ crystals (F10471).
One of the cell plates was taken out of the incubator and the medium was removed. 20 μL of an assay buffer and 2× Fluo-4 Direct™ non-wash loading buffer were added to the 384-well cell culture plate to a final volume of 40 μL, and then the culture plate was incubated in an incubator (a 37° C., 5% CO2) for 50 minutes, and then at room temperature for 10 minutes, and then the plate was placed in the FLIPR. 10 μL of the buffer was transferred to the cell plate and the fluorescence signal was read. The agonist PGE2 was formulated as a 10 mM stock in a DMSO solvent and 10 concentration points of the 6× working solution were serially diluted using the buffer. 10 μL of the agonist PGE2 was transferred to the cell plate, the fluorescence signal was read to calculate EC80 value.
The agonist PGE2 was prepared at 6× EC80 concentration and the compound to be tested was formulated as a 10 mM stock solution in the DMSO solvent and 10 concentration points of the 6× compound working solution was serially diluted using the buffer.
Another cell plate was taken to remove media and 20 μL of the assay buffer and 2× Fluo-4 Direct™ non-wash loading buffer were added; the cell plate was incubated in a 37° C., 5% CO2 incubator for 50 minutes and room temperature for 10 minutes and then placed in the FLIPR. 10 μL of the compound working solution, DMSO, and the EP4 full antagonist were transferred to the cell plate and the fluorescence signal was read. […] Inhibition (%)=100−(test group−EP4 full antagonist group)/(DMSO group−EP4 full antagonist group)*100
Compound's IC50 value of EP4 calcium current inhibition was calculated based on the inhibition rate at different concentrations of the compound.

Data set [2] has as its target T2, recombinant human EP4 receptor membrane protein (Homo sapiens, UniProt P35408).
T2 construct: expressed in transfected cells; host or cells: membranes of 293 cells overexpressing human EP4 receptor
Description: Radioligand binding assay for EP4 receptor ([3H]-PGE2). Conditions: [3H]-PGE2 1.5 nM; membrane protein 20 μg/well. As to the method: The compounds to be tested and PGE2 were formulated as 10 mM stocks in a DMSO solvent, and then 8 concentration points of 4× working solution were serially diluted using a buffer (50 mM HBSS, 0.1% BSA, 500 mM NaCl). […] Unifilter-96 GF/C filter plate (Perkin Elmer) was soaked with 0.5% BSA, 50 μL per well, for at least 30 min at room temperature. After binding was complete, the reaction mixture was harvested through a GF/C plate using a Perkin Elmer Filtermate Harvester, followed by washing the filter plate and drying the filter plate for 1 hour at 50° C. After drying, the bottom of the filter plate wells was sealed using a Perkin Elmer Unifilter-96 sealing tape, and 50 μL of MicroScint™-20 cocktail (Perkin Elmer) was added to seal the top of the filter plate. The ^3H counts captured on the filter were read using a Perkin Elmer MicroBeta2 Reader.
The IC50 and Ki values of the compounds determined by the radioligand binding assay for EP4 receptor were calculated based on the inhibition rate of the different concentrations of the compounds.

Data set [3] addresses T1, human EP4 receptor. Description: Assay for EP4 antagonistic effect (cAMP, PGE2-stimulated CHO stable cell line).
Data set [4] in a line: Mouse pharmacokinetic assay. Format: in vivo, male ICR mice. Particulars: male, ICR, plasma, oral gavage administration 5 mg/kg. Here is the method: (§1) In a mouse pharmacokinetic assay, male ICR mice (20 g to 25 g) were selected and fasted overnight. Three mice were selected and intragastrically administered with 5 mg/kg of the corresponding compound. The blood of the mice was collected before the administration and at 15 min, 30 min, 1 h, 2 h, 4 h, 8 h, 24 h after the administration. Another 3 mice were intravenously administered with 1 mg/kg of the corresponding compound, and the blood thereof was collected before the administration and at 15 min, 30 min, 1 h, 2 h, 4 h, 8 h, 24 h after the administration. The blood samples were centrifuged at 6800 g at 2° C. to 8° C. for 6 minutes, and plasma was collected and stored at −80° C. The plasma was taken at respective time point, mixed with 3-5 times the amount of acetonitrile containing internal standard, vortexed for 1 minute, centrifuged at 4° C. for 10 minutes at 13000 rpm, supernatant was added 3 times the amount of water, and the appropriate mixture was taken for LC-MS/MS analysis. The primary pharmacokinetic parameters were analyzed with a WinNonlin 7.0 software, with non-compartmental model.

Data set [5] in a line: Canine pharmacokinetic assay. In kind it is in vivo, male Beagle dogs. Particulars: male, Beagle, dog, plasma; canine; oral gavage administration 3 mg/kg. As to the method: as §1
In a canine pharmacokinetic assay, male Beagle dogs (8 kg to 10 Kg) were selected and fasted overnight. Three Beagle dogs were taken and intragastrically administered with 3 mg/kg of the corresponding compound. Another 3 Beagle dogs were intravenously administered with 1 mg/kg of the corresponding compound. The following operations were the same as the mouse pharmacokinetic assay.

T1 sequence (P35408 whole entry): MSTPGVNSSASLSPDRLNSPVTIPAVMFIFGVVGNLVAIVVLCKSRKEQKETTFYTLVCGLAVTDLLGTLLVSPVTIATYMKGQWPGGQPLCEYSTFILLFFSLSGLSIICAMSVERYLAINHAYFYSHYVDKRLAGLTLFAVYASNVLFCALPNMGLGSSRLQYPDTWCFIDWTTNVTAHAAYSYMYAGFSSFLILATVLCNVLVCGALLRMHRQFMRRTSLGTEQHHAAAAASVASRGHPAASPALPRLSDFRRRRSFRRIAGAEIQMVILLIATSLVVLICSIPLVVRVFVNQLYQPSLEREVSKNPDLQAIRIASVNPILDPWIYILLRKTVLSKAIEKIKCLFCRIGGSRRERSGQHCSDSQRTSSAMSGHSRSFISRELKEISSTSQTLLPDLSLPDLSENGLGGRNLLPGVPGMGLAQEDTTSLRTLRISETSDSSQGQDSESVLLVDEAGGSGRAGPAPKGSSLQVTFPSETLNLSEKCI
T2 sequence (P35408 whole entry): as above

As a reminder, the IC50 is the midpoint of a concentration-inhibition curve. The Ki is the dissociation constant of the complex between target and ligand, obtained from inhibition or displacement. As to `CSc1cccc(Oc2c(C(=O)N[C@@H](C)c3ccc(C(=O)O)cc3)c(C(F)F)nn2C)c1` [Compound I-30, (S)-4-(1-(3-(difluoromethyl)-1-methyl-5-(3-(methylthio)phenoxy)-1H-pyrazole-4-carboxamido)ethyl)benzoic Acid], the IC50 at human EP4 receptor [1] was 15 nM; in data set [2] it was 12 nM; at human EP4 receptor [3], 12 nM. Moreover, in data set [2], the Ki is 6.6 nM.
As usually defined, the AUC(0-t) is the area under the concentration-time curve up to a stated or last time point. A lower AUC(0-t) goes with low exposure. As usually defined, the Cmax is the highest concentration seen after dosing. What is called Tmax is the time at which the peak concentration occurs. By half-life is commonly meant how long it takes for the measured level to halve. Lower therefore signals fast loss. Turning to `C[C@H](NC(=O)c1c(C(F)F)nn(C)c1Oc1cccc(CC(F)(F)F)c1)c1ccc(C(=O)O)cc1` [Compound I-6, (S)-4-(1-(3-(difluoromethyl)-1-methyl-5-(3-(2,2,2-trifluoroethyl)phenoxy)-1H-pyrazole-4-carboxamido)ethyl)benzoic Acid], the IC50 on human EP4 receptor [1] came to 8 nM. Besides, in data set [4], the AUC(0-t) was 4440 ng·h/mL, the Cmax was 1280 ng/mL, the Tmax was 0.42 h and the half-life was 7.22 h. Further, in data set [2], the IC50 was found to be 11 nM and the Ki is 5.8 nM. In addition, on human EP4 receptor [3], the IC50 stood at 8.2 nM.
`C[C@H](NC(=O)c1c(C(F)F)nn(C)c1Oc1csc(C(F)(F)F)c1)c1ccc(C(=O)O)cc1` [Compound I-42, (S)-4-(1-(3-(difluoromethyl)-1-methyl-5-((5-(trifluoromethyl)thiophen-3-yl)oxy)-1H-pyrazole-4-carboxamido)ethyl)benzoic Acid]: the IC50 on human EP4 receptor [1] is 15 nM. Further, in data set [5], the AUC(0-t) is 7190 ng·h/mL, the peak level (Cmax) was 4850 ng/mL, the Tmax was determined as 0.25 h and the half-life is 8.35 h. For the same molecule, in data set [4], the AUC(0-t) stood at 2440 ng·h/mL, the peak level (Cmax) was 570 ng/mL, the Tmax is 0.33 h and the half-life was 23.2 h. For the same molecule, in data set [2], the IC50 was 13 nM and the Ki came to 7.3 nM. In addition, the IC50 at human EP4 receptor [3] was 8.6 nM.
In the case of `CCc1cccc(Oc2c(C(=O)N[C@@H](C)c3ccc(C(=O)O)cc3)c(C(F)F)nn2C)c1` [Compound I-1, (S)-4-(1-(3-(difluoromethyl)-5-(3-ethylphenoxy)-1-methyl-1H-pyrazole-4-carboxamido)ethyl)benzoic Acid], at human EP4 receptor [1], the IC50 was 15 nM. Also, in data set [4], the AUC(0-t) came out at 2140 ng·h/mL, the Cmax came to 1110 ng/mL, the Tmax is 0.33 h and the half-life was 4.33 h. In data set [2], the IC50 worked out at 16 nM and the Ki worked out at 8.9 nM. Moreover, the IC50 at human EP4 receptor [3] was 3.7 nM.
On to `C[C@H](NC(=O)c1c(C(F)F)nn(C)c1Sc1cccc(C(F)(F)F)c1)c1ccc(C(=O)O)cc1` [Compound I-35, (S)-4-(1-(3-(difluoromethyl)-1-methyl-5-((3-(trifluoromethyl)phenyl)thio)-1H-pyrazole-4-carboxamido)ethyl)benzoic Acid], for which, on human EP4 receptor [1], the IC50 is 6 nM. Moreover, in data set [4], the AUC(0-t) was determined as 3060 ng·h/mL, the Cmax was found to be 1040 ng/mL, the Tmax is 0.33 h and the half-life was 7.12 h. For the same molecule, in data set [2], the IC50 stood at 28 nM and the Ki was 15 nM. Besides, at human EP4 receptor [3], the IC50 was determined as 6.6 nM.

These data come from US12643889B2, “Synthesis of novel EP4 antagonist and use in cancer and inflammation” (Wuhan Humanwell Innovative Drug Research And Development …, priority 2020, dated 2026).
